How the values were obtained:
HEK293T cells = experiment: Immunoblot of AMPK signalling in HEK293T cells; assay type: cell-based; details: 2.5 µM, 1 h
Protocol: (§1) To evaluate the efficacy of MSG011 in cellulo, we incubated mouse primary hepatocytes with 2.5 µM MSG011 for 60 min and tracked changes in phosphorylation of AMPK α-Thr172 (marker of activation) and the AMPK substrate acetyl-CoA carboxylase (ACC) Ser79 (AMPK signalling marker).
(§2) HEK293T/17, HEK293T, COS7, HeLa and PC3 cells (ATCC) were maintained in Dulbecco's Modified Eagle's medium (DMEM; Sigma–Aldrich) supplemented with 10% fetal bovine serum (FBS; Assay Matrix) at 37°C and 5% CO2. Primary hepatocytes from wild type mice were prepared using the collagenase perfusion method and cultured as described previously. Cultures were incubated with fresh DMEM (no FBS) for 2 h prior to 1 h treatment with MSG011 (dissolved in DMSO) or phenformin (dissolved in H2O). Adherent HEK293T/17 cells at ∼50% confluency were triply transfected with AMPK α1 (pcDNA3.1 vector), β1 (COOH-terminal MYC fusion, pcDNA3.1 vector) and WT γ1 or γ1-R299G mutant (NH2-terminal HA fusion, pMT2 vector) in the presence of FuGENE HD transfection reagent (Promega) as per the manufacturers protocol. […]
(§3) All samples were separated on 12% SDS–PAGE gels and transferred to an Immobilon-FL PVDF membrane (Merck Millipore). […] Immunoblots were visualised on the Odyssey Infrared Imaging System (LI-COR Biosciences) and immunoreactive bands analysed and quantified using Image Studio Software (LI-COR Biosciences).

PC3 cells = experiment: Immunoblot of AMPK signalling in PC3 cells; assay type: cell-based; details: PC3, 2.5 µM, 1 h
Protocol: as §1, §2, §3

[1] = tested on: HepG2 cells and C2C12 myotubes; set-up: method as in PMID 28705990; details: cited from earlier work
[2] = tested on: HEK293T/17 cells expressing γ1-R299G AMPK; experiment: α-Thr172 phosphorylation immunoblot, HEK293T/17 cells expressing AMP-insensitive γ1 mutant R299G; assay type: cell-based; details: 2.5 µM
Protocol: To explore this dose-dependent response, we used HEK293T/17 cells transiently expressing WT γ1AMPK or the AMP-insensitive γ1 mutant R299G (Supplementary Figure S4A). […] One explanation is that 2.5 µM MK-8722 caused indirect activation of AMPK (α-Thr172 phosphorylation) by inducing a metabolic stress leading to rises in AMP/ATP and ADP/ATP ratios. We examined the effect of MK-8722 incubation on C2C12 mitochondrial function (Supplementary Figure S4B–I).
HEK293T/17, HEK293T, COS7, HeLa and PC3 cells (ATCC) were maintained in Dulbecco's Modified Eagle's medium (DMEM; Sigma–Aldrich) supplemented with 10% fetal bovine serum (FBS; Assay Matrix) at 37°C and 5% CO2. Primary hepatocytes from wild type mice were prepared using the collagenase perfusion method and cultured as described previously. […]
as §3
Lysates were assessed for phosphorylation of AMPKα-Thr172 by immunoblot. n = 3, data presented as mean T172 phosphorylation (arbitrary units) ± SEM. […] (J) Lysates were assessed for total protein content following the respiration assay.

C2C12 myoblasts = experiment: C2C12 oxygen consumption rate (Seahorse), mitochondrial function; assay type: cell-based, Murine; details: for basal respiration, ATP production, maximal respiration, spare respiratory capacity, non-mitochondrial oxygen consumption and coupling efficiency: 1 h
Protocol: Murine C2C12 myoblasts were plated at 1 × 10^4 cells/well into Agilent Seahorse XFe24 Cell Culture Microplates in DMEM (life Technologies, Australia) containing 10% (v/v) fetal calf serum, 1% L-glutamine (v/v), and 1% (v/v) antibiotic solution (100 unit/ml penicillin/streptomycin) at 37°C in an atmosphere of 5% CO2. The next day, cells were switched to Seahorse basal assay media (Agilent, cat#: 102353-100; 48.5 ml) containing Glutamax (500 µl of 100×; Gibco, cat#35050), D-glucose (Sigma–Aldrich cat#: G8769) and sodium pyruvate (100×; Gibco cat#: 11360-070) at pH 7.4. MK-8722 at varying doses (0, 1, 10 µM) was incubated with myotubes 1 h prior to experiment, and the assay performed by titrating oligomycin (2 µM), FCCP (2 µM), and rotenone (2 µM) plus antimycin A (2 µM) as indicated. A Seahorse XFe24 Flux Analyzer (Seahorse Biosciences) was used to measure Oxygen Consumption Rate (OCR) at three time points during basal respiration and after each injection. Cells were lysed in equal volume (20 µl) and OCR measurements were normalised to total protein determined by polyacrylamide electrophoresis (5 µl lysate/well) and stain-free imaging.
Lysates were assessed for phosphorylation of AMPKα-Thr172 by immunoblot. n = 3, data presented as mean T172 phosphorylation (arbitrary units) ± SEM. Statistical significance vs. respective vehicle treatment was performed using unpaired, two-tailed Student’s t-test. **** P < 0.0001 indicates significant increase in a-Thr172 phosphorylation relative to vehicle treated WT γ1AMPK. Representative immunoblots are shown. (B) C2C12 myoblast oxygen consumption rate following treatment of MK-8722 (0, 1, 10 µM) for 1 h and titration of specific respiration modulators. (C-I) Parameters of mitochondrial function. n = 6-7, data presented as mean oxygen consumption rate ± SEM. […] (J) Lysates were assessed for total protein content following the respiration assay.

| SMILES | AMPK signalling (phosphorylation of ACC-Ser79 and raptor-Ser792) (HEK293T cells) | α-Thr172 phosphorylation (HEK293T cells) | AMPK signalling (phosphorylation of ACC-Ser79 and raptor-Ser792) (PC3 cells) | α-Thr172 phosphorylation (PC3 cells) | α-Thr172 phosphorylation ([1]; above 1 µM) | AMPK signalling ([1]; below 1 µM, in the absence of increased α-Thr172 phosphorylation) | decrease of induced α-Thr172 phosphorylation relative to WT γ1 cells [2] [%] | effect on phosphorylation of α-Thr172 ([2]; 60 min) | cell viability by total protein stain (C2C12 myoblasts; 0, 1, 10 µM, after respiration assay) | basal respiration, ATP production, maximal respiration, spare respiratory capacity, non-mitochondrial oxygen consumption and coupling efficiency (C2C12 myoblasts; 1 µM) | basal respiration, ATP production, maximal respiration, spare respiratory capacity, non-mitochondrial oxygen consumption and coupling efficiency (C2C12 myoblasts; 10 µM) |
| --- | --- | --- | --- | --- | --- | --- | --- | --- | --- | --- | --- |
| CC(=O)NC1CC=C(c2ccc(-c3nc4nc(Oc5ccc(C)c(C(=O)O)c5)[nH]c4cc3Cl)cc2)CC1 (centres unmarked) [MSG011, 5-((5-(4′-Acetamido-2′,3′,4′,5′-tetrahydro-[1,1′-biphenyl]-4-yl)-6-chloro-1H-imidazo[4,5-b]pyridin-2-yl)oxy)-2-methylbenzoic acid] | at levels comparable to extreme energy stress | independent of changes to α-Thr172 phosphorylation | significantly activated AMPK | independent of changes to α-Thr172 phosphorylation |  |  |  |  |  |  |  |
| O[C@@H]1CO[C@H]2[C@@H]1OC[C@H]2Oc1nc2nc(-c3ccc(-c4ccccc4)cc3)c(Cl)cc2[nH]1 [MK-8722, reference compound] |  |  |  |  | elevated α-Thr172 | stimulate AMPK signalling | ~55 | largely abrogated | not due to loss of cell viability | not | significantly impaired |

From publication PMC9317966, “Structure-function analysis of the AMPK activator SC4 and identification of a potent pan AMPK activator” (Biochemical Journal, 2022)
